The source of these data is patent US11542259B2, “Compounds for the treatment of kinase-dependent disorders” (Exelixis, Inc., priority 2018, dated 2023).

Structures are written as SMILES. pIC50: −log10 of the molar value.

In assay [1] the target is AXL (Homo sapiens (Human), UniProt P30530). Put plainly: AXL autophosphorylation ELISA in A-172 cells. Type of assay: cell-based. To be noted: cellular, Gas6 stimulated. An outline of the steps: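 Serum-starved (24 h) A-172 glioblastoma cells pretreated 1 h with compounds (8-point curve, 0.3% DMSO), then stimulated 15 min with 1 μg/mL Gas6. Lysate phospho-AXL measured by sandwich ELISA against a phospho-AXL standard; IC50 from 4-parameter logistic fit between DMSO and reference-inhibitor controls.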
A general note: ELISA stands for enzyme-linked immunosorbent assay.

The target in assay [2] is Met (Homo sapiens (Human), UniProt P08581). Put plainly: Met autophosphorylation ELISA in PC-3 cells. Type of assay: cell-based. To be noted: cellular, HGF stimulated, read-out: c-Met IC50. An outline of the steps:
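PC-3 cells serum-starved 3 h, treated 1 h with 8-point compound series (0.3% DMSO), then stimulated with 100 ng/mL human HGF for 10 min. Lysate phospho-Met (panTyr) measured by sandwich ELISA; IC50 from 4-parameter logistic fit against DMSO and reference-inhibitor controls.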

The target of assay [3] is Human Mer (residues R557-E882 with H628Q and R794A) (Homo sapiens (Human), UniProt Q12866). Put plainly: Human Mer kinase assay (33P radiometric, KinaseProfiler). Type of assay: biochemical. To be noted: 10 μM ATP. The protocol:
(§1) Kinase activity and compound inhibition were investigated using the ^33P-Phosphoryl transfer radiometric kinase assay, performed using the KinaseProfiler™ service of Eurofins Pharma Discovery Services UK Limited. Dose-response experiments were performed using nine compound concentrations in a 96-well microtiter plate. For each assay, all compounds were prepared to a 50× final assay concentration (50 μM) in 100% DMSO, then diluted in a half-log series, with the final top concentration at 1 μM. This working stock of the compound was added to the assay well as the first component in the reaction, followed by the remaining components as detailed in the following assay protocols below. The positive control wells (100% kinase activity) contain all components of the reaction including 2% DMSO (control for solvent effects), except the compound of interest. Blank wells contain all components of the reaction, with the reference inhibitor, staurosporine. This reference compound was used to abolish kinase activity and generated the 0% kinase activity base-line. IC50 values were calculated by nonlinear regression analysis using the sigmoidal dose-response (variable slope) curve fit on XLFit version 5.3 (ID Business Solutions).
Human Mer (residues R557-E882 with H628Q and R794A, 0.7 nM) was incubated with 8 mM MOPS pH 7.0, 0.2 mM EDTA, 30 mM NaCl, 250 μM GGMEDIYFEFMGGKKK (SEO ID NO. 44). 10 mM magnesium acetate, and 10 μM [γ-^33P-ATP]. The reaction was initiated by the addition of the Mg/ATP mix. After incubation for 40 minutes at room temperature, the reaction was stopped by the addition of phosphoric acid to a concentration of 0.5%. A reaction aliquot of 10 μL was then spotted onto a P30 filtermat and washed four times for 4 minutes in 0.425% phosphoric acid and once in methanol prior to drying and scintillation counting. Incorporated ^33P was measured using the Wallac Microbeta scintillation counter (Perkin Elmer).

Assay [4] has as its target Human Axl (residues H473-A894 with Q764R) (Homo sapiens (Human), UniProt P30530, Q764R). Put plainly: Human AXL kinase assay (33P radiometric, KinaseProfiler). Type of assay: biochemical. The note with it: 10 μM ATP. The protocol:
as §1
Human Axl (residues H473-A894 with Q764R, 161 nM) was incubated with 8 mM MOPS pH 7.0, 0.2 mM EDTA, 250 μM KKSRGDYMTMQIG (SEO ID NO. 43) 10 mM magnesium acetate and 10 μM [γ-33P-ATP]. The reaction was initiated by the addition of the Mg/ATP mix. After incubation for 40 minutes at room temperature, the reaction was stopped by the addition of phosphoric acid to a concentration of 0.5%. A reaction aliquot of 10 μL was then spotted onto a P30 filtermat and washed four times for 4 minutes in 0.425% phosphoric acid and once in methanol prior to drying and scintillation counting. Incorporated ^33P was measured using the Wallac Microbeta scintillation counter (Perkin Elmer).

Sequence of Met (P08581 25-1390): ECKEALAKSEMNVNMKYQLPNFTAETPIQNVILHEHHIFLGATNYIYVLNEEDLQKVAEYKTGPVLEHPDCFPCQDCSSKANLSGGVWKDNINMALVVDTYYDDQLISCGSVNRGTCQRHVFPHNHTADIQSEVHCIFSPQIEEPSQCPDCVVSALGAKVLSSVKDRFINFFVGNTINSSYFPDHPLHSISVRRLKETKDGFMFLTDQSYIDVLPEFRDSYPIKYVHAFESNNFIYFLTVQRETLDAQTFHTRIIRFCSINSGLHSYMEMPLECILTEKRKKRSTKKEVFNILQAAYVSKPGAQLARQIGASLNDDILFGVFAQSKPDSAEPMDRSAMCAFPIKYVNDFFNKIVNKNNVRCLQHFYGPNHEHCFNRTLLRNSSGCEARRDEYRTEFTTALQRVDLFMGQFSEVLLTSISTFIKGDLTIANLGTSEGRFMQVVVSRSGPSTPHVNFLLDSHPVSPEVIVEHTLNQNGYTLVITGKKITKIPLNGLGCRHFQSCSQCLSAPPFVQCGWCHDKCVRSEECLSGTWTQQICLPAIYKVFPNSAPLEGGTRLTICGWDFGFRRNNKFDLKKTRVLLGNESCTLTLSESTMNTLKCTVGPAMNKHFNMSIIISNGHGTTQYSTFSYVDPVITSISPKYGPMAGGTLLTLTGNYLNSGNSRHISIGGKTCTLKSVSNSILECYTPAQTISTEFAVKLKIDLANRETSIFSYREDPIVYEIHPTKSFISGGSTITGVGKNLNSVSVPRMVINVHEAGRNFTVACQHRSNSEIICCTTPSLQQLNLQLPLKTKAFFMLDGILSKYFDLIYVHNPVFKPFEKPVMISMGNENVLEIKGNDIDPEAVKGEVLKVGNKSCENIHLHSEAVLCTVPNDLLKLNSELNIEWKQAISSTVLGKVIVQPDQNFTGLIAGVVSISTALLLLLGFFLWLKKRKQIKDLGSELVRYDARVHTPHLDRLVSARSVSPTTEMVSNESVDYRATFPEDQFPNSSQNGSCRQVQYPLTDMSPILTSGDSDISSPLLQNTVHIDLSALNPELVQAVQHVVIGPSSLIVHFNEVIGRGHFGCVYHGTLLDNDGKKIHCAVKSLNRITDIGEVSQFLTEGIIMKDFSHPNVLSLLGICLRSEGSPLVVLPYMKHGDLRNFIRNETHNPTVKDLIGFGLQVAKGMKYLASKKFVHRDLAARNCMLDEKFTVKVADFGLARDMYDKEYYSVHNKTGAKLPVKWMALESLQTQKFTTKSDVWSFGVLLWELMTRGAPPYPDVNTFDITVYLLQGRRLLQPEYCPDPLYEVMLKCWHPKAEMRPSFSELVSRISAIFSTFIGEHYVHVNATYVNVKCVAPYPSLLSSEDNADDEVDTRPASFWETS
Sequence of Human Mer (residues R557-E882 with H628Q and R794A) (Q12866 557-882, stated change not applied): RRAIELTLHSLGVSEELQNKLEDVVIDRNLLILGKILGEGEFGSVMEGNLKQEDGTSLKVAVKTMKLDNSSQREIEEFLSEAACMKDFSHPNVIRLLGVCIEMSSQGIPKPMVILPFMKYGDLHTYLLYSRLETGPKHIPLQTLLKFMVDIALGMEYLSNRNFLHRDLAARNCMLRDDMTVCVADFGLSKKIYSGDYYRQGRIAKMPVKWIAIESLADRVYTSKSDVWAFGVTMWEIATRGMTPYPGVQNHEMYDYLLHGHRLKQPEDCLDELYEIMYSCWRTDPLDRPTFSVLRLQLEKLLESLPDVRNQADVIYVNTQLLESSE
Sequence of AXL (P30530 26-894): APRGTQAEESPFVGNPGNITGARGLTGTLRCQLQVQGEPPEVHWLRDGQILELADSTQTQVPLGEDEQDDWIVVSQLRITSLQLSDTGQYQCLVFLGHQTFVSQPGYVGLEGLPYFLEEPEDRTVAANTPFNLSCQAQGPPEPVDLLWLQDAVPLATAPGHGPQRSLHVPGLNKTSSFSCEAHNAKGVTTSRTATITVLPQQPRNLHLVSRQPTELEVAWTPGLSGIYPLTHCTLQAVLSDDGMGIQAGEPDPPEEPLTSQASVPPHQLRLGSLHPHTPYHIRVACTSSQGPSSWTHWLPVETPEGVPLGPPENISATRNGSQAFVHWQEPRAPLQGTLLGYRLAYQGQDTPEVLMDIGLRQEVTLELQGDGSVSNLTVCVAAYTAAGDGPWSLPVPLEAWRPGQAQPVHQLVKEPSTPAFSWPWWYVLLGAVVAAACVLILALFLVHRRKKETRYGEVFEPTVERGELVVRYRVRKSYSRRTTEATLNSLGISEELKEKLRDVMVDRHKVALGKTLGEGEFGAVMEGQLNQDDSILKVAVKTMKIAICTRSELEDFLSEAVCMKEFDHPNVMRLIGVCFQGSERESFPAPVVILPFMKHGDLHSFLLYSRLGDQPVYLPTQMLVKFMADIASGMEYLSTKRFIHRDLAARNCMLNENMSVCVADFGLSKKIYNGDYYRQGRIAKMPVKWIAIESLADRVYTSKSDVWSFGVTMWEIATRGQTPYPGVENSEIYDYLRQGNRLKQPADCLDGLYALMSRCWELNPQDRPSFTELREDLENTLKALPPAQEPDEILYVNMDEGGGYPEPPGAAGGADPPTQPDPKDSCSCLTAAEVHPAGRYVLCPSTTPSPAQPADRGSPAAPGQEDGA
Sequence of Human Axl (residues H473-A894 with Q764R) (P30530 473-894 Q764R): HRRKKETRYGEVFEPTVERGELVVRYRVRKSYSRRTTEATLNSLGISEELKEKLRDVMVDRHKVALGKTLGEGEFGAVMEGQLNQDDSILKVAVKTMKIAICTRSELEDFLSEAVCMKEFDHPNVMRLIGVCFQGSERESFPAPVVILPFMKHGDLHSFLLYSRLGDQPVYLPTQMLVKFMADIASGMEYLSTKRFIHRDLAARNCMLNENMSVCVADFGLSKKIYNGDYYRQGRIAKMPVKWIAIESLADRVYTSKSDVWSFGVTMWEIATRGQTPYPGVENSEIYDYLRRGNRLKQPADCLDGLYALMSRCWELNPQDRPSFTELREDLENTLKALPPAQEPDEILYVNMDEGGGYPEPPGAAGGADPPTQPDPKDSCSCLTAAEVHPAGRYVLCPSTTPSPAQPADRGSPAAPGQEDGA

As to `COC(=O)c1cc2c(Oc3ccc(NC(=O)C4(C(=O)Nc5ccc(F)cc5)CC4)cc3)ccnc2cc1OC` [Compound 5, methyl 4-[4-[[1-[(4-fluorophenyl)carbamoyl]-cyclopropanecarbonyl]amino]-phenoxy]-7-methoxyquinoline-6-carboxylate], the pIC50 (usually −log10 of the IC50, conventionally taken in molar units) in assay [1] is 7.00 to 8.00; in assay [2], 7.00 to 8.00; in assay [3] it was at least 8.00; in assay [4], 7.00 to 8.00.
In the case of `COc1cc2nccc(Oc3ccc(NC(=O)C4(C(=O)Nc5ccc(F)cc5)CC4)cc3)c2cc1C(N)=O` [Compound 7, 1-N-[4-(6-carbamoyl-7-methoxyquinolin-4-yl)oxyphenyl]-1-N′-(4-fluorophenyl)cyclopropane-1,1-dicarboxamide], the pIC50 in assay [1], in assay [2] and in assay [3] was at least 8.00 in each case.
Turning to `CNC(=O)c1cc2c(Oc3ccc(NC(=O)C4(C(=O)Nc5ccc(F)cc5)CC4)cc3)ccnc2cc1OC` [Compound 8, 1-N′-(4-fluorophenyl)-1-N-[4-[7-methoxy-6-(methylcarbamoyl)quinolin-4-yl]oxyphenyl]cyclopropane-1,1-dicarboxamide], the figures for the negative logarithm of the IC50 (pIC50) in assay [1], in assay [2] and in assay [3] were at least 8.00, 7.00 to 8.00 and at least 8.00, respectively.
As for `CCNC(=O)c1cc2c(Oc3ccc(NC(=O)C4(C(=O)Nc5ccc(F)cc5)CC4)cc3)ccnc2cc1OC` [Compound 9, 1-N-[4-[6-(ethylcarbamoyl)-7-methoxyquinolin-4-yl]oxyphenyl]-1-N′-(4-fluorophenyl)cyclopropane-1,1-dicarboxamide], the pIC50 was at least 8.00 in assay [1] and 7.00 to 8.00 in assay [2].
`COc1cc2nccc(Oc3ccc(NC(=O)C4(C(=O)Nc5ccc(F)cc5)CC4)cc3)c2cc1C(=O)NC1COC1` [Compound 13, 1-N′-(4-fluorophenyl)-1-N-[4-[7-methoxy-6-(oxetan-3-ylcarbamoyl)quinolin-4-yl]oxyphenyl]cyclopropane-1,1-dicarboxamide]: the pIC50 in assay [1] was 7.00 to 8.00; in assay [2] it was 7.00 to 8.00; in assay [3] it was at least 8.00; in assay [4] it was 7.00 to 8.00.
Take `COc1cc2nccc(Oc3ccc(NC(=O)C4(C(=O)Nc5ccc(F)cc5)CC4)cc3)c2cc1C(=O)NC1CN(C)C1` [Compound 14, 1-N′-(4-fluorophenyl)-1-N-[4-[7-methoxy-6-[(1-methylazetidin-3-yl)carbamoyl]quinolin-4-yl]oxyphenyl]cyclopropane-1,1-dicarboxamide]: the pIC50 in assay [1] was at least 8.00; in assay [2], at least 8.00; in assay [3], at least 8.00; in assay [4], 7.00 to 8.00.
`COc1cc2nccc(Oc3ccc(NC(=O)C4(C(=O)Nc5ccc(F)cc5)CC4)cc3)c2cc1C(=O)N1CCC1` [Compound 15, 1-N-[4-[6-(azetidine-1-carbonyl)-7-methoxyquinolin-4-yl]oxyphenyl]-1-N′-(4-fluorophenyl)cyclopropane-1,1-dicarboxamide]: the pIC50 in assay [1] is 7.00 to 8.00; in assay [2], 6.52 to 7.00; in assay [3], at least 8.00; in assay [4], 7.00 to 8.00.
As to `COc1cc2nccc(Oc3ccc(NC(=O)C4(C(=O)Nc5ccc(F)cc5)CC4)cc3)c2cc1C(=O)N1CC(O)C1` [Compound 16, 1-N′-(4-fluorophenyl)-1-N-[4-[6-(3-hydroxyazetidine-1-carbonyl)-7-methoxyquinolin-4-yl]oxyphenyl]cyclopropane-1,1-dicarboxamide], the pIC50 in assay [1] is 7.00 to 8.00; in assay [2], 6.52 to 7.00; in assay [3], at least 8.00; in assay [4], 7.00 to 8.00.
As for `CONC(=O)c1cc2c(Oc3ccc(NC(=O)C4(C(=O)Nc5ccc(F)cc5)CC4)cc3)ccnc2cc1OC` [Compound 17, 1-N′-(4-fluorophenyl)-1-N-[4-[7-methoxy-6-(methoxycarbamoyl)quinolin-4-yl]oxyphenyl]cyclopropane-1,1-dicarboxamide], the pIC50 in assay [1] and in assay [2] was 7.00 to 8.00 each time.
With `COc1cc2nccc(Oc3ccc(NC(=O)C4(C(=O)Nc5ccc(F)cc5)CC4)cc3)c2cc1C#N` [Compound 37, 1-N-[4-(6-cyano-7-methoxyquinolin-4-yl)oxyphenyl]-1-N′-(4-fluorophenyl)cyclopropane-1,1-dicarboxamide], the pIC50 in assay [1] was 7.00 to 8.00; in assay [2], 7.00 to 8.00; in assay [3], at least 8.00; in assay [4], 7.00 to 8.00.
As for `COc1cc2nccc(Oc3ccc(NC(=O)C4(C(=O)Nc5ccc(F)cc5)CC4)cc3)c2cc1-c1ncco1` [Compound 45, 1-N′-(4-fluorophenyl)-1-N-[4-[7-methoxy-6-(1,3-oxazol-2-yl)quinolin-4-yl]oxyphenyl]cyclopropane-1,1-dicarboxamide], the pIC50 in assay [1], in assay [2] and in assay [3] was at least 8.00 each time.
Regarding `NC(=O)c1ccc2nccc(Oc3ccc(NC(=O)C4(C(=O)Nc5ccc(F)cc5)CC4)cc3)c2c1` [Compound 58, 1-N-[4-(6-carbamoylquinolin-4-yl)oxyphenyl]-1-N′-(4-fluorophenyl)cyclopropane-1,1-dicarboxamide], the pIC50 was 7.00 to 8.00 in assay [1], 6.52 to 7.00 in assay [2], 7.00 to 8.00 in assay [3] and 7.00 to 8.00 in assay [4].
Regarding `CNC(=O)c1ccc2nccc(Oc3ccc(NC(=O)C4(C(=O)Nc5ccc(F)cc5)CC4)cc3)c2c1` [Compound 59, 1-N′-(4-fluorophenyl)-1-N-[4-[6-(methylcarbamoyl)quinolin-4-yl]oxyphenyl]cyclopropane-1,1-dicarboxamide], the pIC50 in assay [1] was 6.52 to 7.00; in assay [2], 6.52 to 7.00; in assay [3] it was 7.00 to 8.00; in assay [4], 7.00 to 8.00.
In the case of `CN1CC(NC(=O)c2ccc3nccc(Oc4ccc(NC(=O)C5(C(=O)Nc6ccc(F)cc6)CC5)cc4)c3c2)C1` [Compound 60, 1-N′-(4-fluorophenyl)-1-N-[4-[6-[(1-methylazetidin-3-yl)carbamoyl]quinolin-4-yl]oxyphenyl]cyclopropane-1,1-dicarboxamide], the pIC50 in assay [1] was 6.52 to 7.00; in assay [2], 6.52 to 7.00; in assay [3] it was 7.00 to 8.00; in assay [4], 7.00 to 8.00.
Take `NC(=O)c1cc2c(Oc3ccc(NC(=O)C4(C(=O)Nc5ccc(F)cc5)CC4)cc3)ccnc2cc1F` [Compound 67, 1-N-[4-(6-carbamoyl-7-fluoroquinolin-4-yl)oxyphenyl]-1-N′-(4-fluorophenyl)cyclopropane-1,1-dicarboxamide]: the pIC50 is 6.52 to 7.00 in assay [1], 6.52 to 7.00 in assay [2], 7.00 to 8.00 in assay [3] and 7.00 to 8.00 in assay [4].
In the case of `NC(=O)c1cc2c(Oc3ccc(NC(=O)C4(C(=O)Nc5ccc(F)cc5)CC4)cc3)ccnc2cc1OCCCN1CCOCC1` [Compound 98, 1-N-[4-[6-carbamoyl-7-(3-morpholin-4-ylpropoxy)quinolin-4-yl]oxyphenyl]-1-N′-(4-fluorophenyl)cyclopropane-1,1-dicarboxamide], the pIC50 in assay [1], in assay [2], in assay [3] and in assay [4] was at least 8.00 throughout.
`COCCOc1cc2nccc(Oc3ccc(NC(=O)C4(C(=O)Nc5ccc(F)cc5)CC4)cc3)c2cc1C(N)=O` [Compound 103, 1-N-[4-[6-carbamoyl-7-(2-methoxyethoxy)quinolin-4-yl]oxyphenyl]-1-N′-(4-fluorophenyl)cyclopropane-1,1-dicarboxamide]: the pIC50 in assay [1] is at least 8.00; in assay [2], 7.00 to 8.00; in assay [3], at least 8.00; in assay [4], 7.00 to 8.00.
As for `COc1cc2nccc(Oc3ccc(NC(=O)C4(C(=O)Nc5ccc(F)cc5)CC4)cc3)c2cc1-c1ncc[nH]1` [Compound 191, 1-N′-(4-Fluorophenyl)-1-N-[4-[6-(1H-imidazol-2-yl)-7-methoxyquinolin-4-yl]oxyphenyl]cyclopropane-1,1-dicarboxamide], the figures for the pIC50 in assay [1] and in assay [2] were at least 8.00 and 7.00 to 8.00, respectively.
